According to patent US20100048727A1, “PERFLUOROKETONE COMPOUNDS AND USES THEREOF” (priority 2007, published 2010):

How the values were obtained:
human GIVA cPLA2 = biological target: T1, human GIVA cPLA2 (Homo sapiens, UniProt P47712); test: GIVA cPLA2 specific mixed micelle assay; format: biochemical; conditions: 0.091 mole fraction
T1 sequence (P47712 1-749): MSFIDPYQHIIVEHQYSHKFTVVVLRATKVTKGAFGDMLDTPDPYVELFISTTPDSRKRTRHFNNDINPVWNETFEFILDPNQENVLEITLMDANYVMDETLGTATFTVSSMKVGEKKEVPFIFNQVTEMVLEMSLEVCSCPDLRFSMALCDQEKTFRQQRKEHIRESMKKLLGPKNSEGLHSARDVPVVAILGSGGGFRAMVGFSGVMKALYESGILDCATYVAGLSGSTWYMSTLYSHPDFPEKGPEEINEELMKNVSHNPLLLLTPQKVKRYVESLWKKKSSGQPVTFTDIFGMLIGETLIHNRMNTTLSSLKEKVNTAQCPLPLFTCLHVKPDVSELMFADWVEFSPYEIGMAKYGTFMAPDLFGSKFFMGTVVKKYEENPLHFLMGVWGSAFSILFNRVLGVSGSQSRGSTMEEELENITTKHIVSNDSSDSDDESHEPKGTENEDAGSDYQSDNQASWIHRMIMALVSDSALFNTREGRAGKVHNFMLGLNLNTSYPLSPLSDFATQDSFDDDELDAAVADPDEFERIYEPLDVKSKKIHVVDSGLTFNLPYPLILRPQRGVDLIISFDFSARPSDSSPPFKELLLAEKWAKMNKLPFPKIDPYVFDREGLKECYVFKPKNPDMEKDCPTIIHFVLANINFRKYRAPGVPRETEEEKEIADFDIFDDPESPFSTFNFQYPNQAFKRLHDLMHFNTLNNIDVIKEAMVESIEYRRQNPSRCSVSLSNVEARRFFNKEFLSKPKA
Description: Inhibition of phospholipase A2 by perfluoroketone compounds. […] (2002) J. Med. Chem. 45: 2891-2893; Kokotos, G. et al. (2004). J. Med. Chem. 47: 3615-3628). The standard GVIA iPLA2 activity assay utilizes DPPC/Triton™ X-100 mixed micelles at a ratio of 1:4 as previously described (Stephens D. et al. (2006). J. Med. Chem., 49: 2821-2828). GV sPLA2 activity was measured in an assay similar to the assays for GIVA cPLA2 and GVIA iPLA2.

[1] = test system: inflammatory cytokines and chemokines in spinal cord; test: Mouse Inflammation antibody array on spinal cords of EAE mice; format: in vivo; conditions: peak stage (day 18)
Description: Mouse Inflammation antibody array. Spinal cords were removed from vehicle- and FKGK11-treated animals at the peak stage of disease, and were then homogenized and centrifuged at 1000×g. The proteins were extracted and analyzed using the RayBio® Mouse Inflammation Antibody Array 1.1 (Cat. #0106008/AAM-INF-1; RayBiotech Inc.; Norcross, Ga.), which simultaneously detects 40 cytokines and other related proteins. Densitometry analysis was performed to detect differences between the various inflammatory mediators.
To further examine the effects of iPLA2 inhibitor treatment, the expression of 40 inflammatory cytokines and chemokines was assessed using the RayBio® Mouse Inflammation Antibody Array 1.1 (RayBiotech Inc., Norcross, Ga, Cat. #0106008/AAM-INF-1). The analysis was carried out on spinal cords taken from the peak stage of clinical disability (day 18), from mice treated with either a vehicle control, or the iPLA2-specific inhibitor FKGK11.

`O=C(CCCCc1ccccc1)C(F)(F)C(F)(F)F` [FKGK11, 1,1,1,2,2-Pentafluoro-7-phenyl-3-heptanone] was tested, and the “Average percent inhibition GIVA cPLA2 (class symbol)” value (human GIVA cPLA2) was “N.D. (N.D. means compounds with less than 25% inhibition (or no detectable inhibition))”, the IL-10 expression [1] was “increase” and the “number of chemokine proteins with marked reduction” value ([1]; of 15 chemokines increased in vehicle-treated control) was 11. The “number of pro-inflammatory cytokines with reduced expression” value ([1]; of 17 cytokines increased in vehicle-treated control) was 13.
